Data from patent US20250255867A1 (Kadmon Corporation, LLC, priority 2022, published 2025).

Legend:
Assay type in all cases: in vivo, human
patients with cGVHD = assay: Example 1: time to next therapy, failure-free survival, overall survival
Experimental: Time to next therapy (TTNT). The TTNT was defined as the time (in months) from first treatment to the time of new systemic cGVHD treatment. TTNT was censored by last response assessment or long term follow up assessment, whichever was earlier. Kaplan-Meier survival method was used for the analysis. […] Analysis was performed on mITT population.
Failure-free survival was defined as the time (in months) from first dose of study drug to either the start of another new systemic treatment for cGVHD, relapse of the underlying disease or death. If no such events happened, FFS was censored by last response assessment or long term follow up assessment, whichever was the latest and available. Kaplan-Meier survival method was used for the analysis. Analysis was performed on mITT population.
Overall survival was defined as the time (in months) from first dose of study drug to the death due to any reason. If there was no death, OS was censored by last visit, last long term follow-up, or study cutoff date, whichever was the latest. Kaplan-Meier survival method was used for the analysis.

subjects with cGVHD [1] = assay: Example 2: corticosteroid and other immunosuppressant reduction/discontinuation
Experimental: (§1) All responses were assessed by the study site investigators.

subjects with cGVHD [2] = assay: Example 2: 7-day LSS summary score; settings: for Clinically significant improvement from baseline (LSS), Overall: decrease ≥7 points in LSS score, mITT population
Experimental: as §1

subjects with BOS = assay: Example 3 combined analysis: lung-specific NIH response in BOS
Experimental: Subjects enrolled in the clinical studies described in Examples 1 and 2 served as the population for the combined analysis.
Patients with BOS were identified as: 1) % predicted forced expiratory volume in 1 second (% FEV1) of £79% at enrollment, and 2) clinician attribution of lung disease due to cGVHD.
In Example 1, lung function assessments were conducted at baseline and on Day 1 of each cycle for patients with suspected of known lung involvement. In Example 2, lung function assessments were conducted at baseline and at the time of response assessments: Day 1 of cycles 2-5 and then on Day 1 of every other cycle thereafter.
The severity of cGVHD was graded according to the 2014 NIH Consensus Criteria. […] According to these criteria, a complete response (CR) in the lung is defined as normal % FEV1 after previous involvement or in the absence of PFTs, a NIH lung Symptom Score of 0 after previous involvement. Partial response (PR) in the lung is defined as an increase by 10% predicted absolute value of % FEV1 or in the absence of PFTs, a decrease in NIH Lung Symptom Score by 1 or more points. Progression of lung disease is defined as a decrease by 10% predicted absolute value of % FEV1 or in the absence of PFTs, an increase in NIH Lung Symptom Score by 1 or more points, except 0 to 1.
Baseline characteristics were reported descriptively. Univariable and multivariable logistic regression analysis was performed to investigate clinical factors (listed in Table 1) that were associated with NIH lung response. Correlation analysis was performed to assess correlation among lung response metrics. All testing was two-sided at the significance level of 0.05. All analyses were performed using SAS 9.3 (SAS Institute Inc., Cary, NC), and R v3.5.2 (the CRAN project).

[3] = 200 mg daily (n = 66), mITT population
[4] = 200 mg twice daily (n = 66), mITT population
[5] = Total (N = 132), mITT population
[6] = NIH Lung Score at baseline 1, 30 subjects
[7] = NIH Lung Score at baseline 2, 23 subjects
[8] = NIH Lung Score at baseline 3, 6 subjects

For `CC(C)NC(=O)COc1cccc(-c2nc(Nc3ccc4[nH]ncc4c3)c3ccccc3n2)c1` [Belumosudil, 2-{3-[4-(1H-indazol-5-ylamino)-2-quinazolinyl]phenoxy}-N-(propan-2-yl) acetamide], the “FFS rate at 6 months” value (patients with cGVHD) was 76%, the “FFS rate at 12 months” value (patients with cGVHD) was 47% and the “Mean change in CS dose from baseline, Nonresponder” value (“Mean change … Nonresponder” below) (subjects with cGVHD [1]; 200 mg daily) was −22%. For the same molecule, the “Mean change in CS dose from baseline, Responder” value (subjects with cGVHD [1]; 200 mg daily) was −49%, the CS discontinuation (subjects with cGVHD [1]; [3]) was 13 (20) n (%) and the “Mean change in CS dose from baseline, Overall” value (from here on “Mean change … Overall”) (subjects with cGVHD [1]; [3]) was −43%. For the same molecule, the “Median CS reduction from baseline to greatest reduction” value (from here on “Median CS reduction from baseline”) (subjects with cGVHD [1]; [3]) was 38%, the “Proportion with CS reduction” value (subjects with cGVHD [1]; [3]) was 42 (64) n (%) and the “Mean change … Nonresponder” value (subjects with cGVHD [1]; 200 mg twice daily) was −10%. For the same molecule, the “Mean change in CS dose from baseline, Responder” value (subjects with cGVHD [1]; 200 mg twice daily) was −58%, the “Mean change … Overall” value (subjects with cGVHD [1]; [4]) was −48% and the “Median CS reduction from baseline” value (subjects with cGVHD [1]; [4]) was 50%. The “Mean change … Nonresponder” value (subjects with cGVHD [1]; Total) was −16%, the “Mean change in CS dose from baseline, Responder” value (subjects with cGVHD [1]; Total) was −54% and the “Mean change … Overall” value (subjects with cGVHD [1]; [5]) was −45%. For the same molecule, the “Median CS reduction from baseline” value (subjects with cGVHD [1]; [5]) was 50%, the “Subjects who discontinued CNI therapy” value (subjects with cGVHD [1]; in vivo) was 22% and the “Subjects who discontinued mycophenolate mofetil” value (subjects with cGVHD [1]; in vivo) was 21%. The “Subjects who discontinued sirolimus” value (subjects with cGVHD [1]; in vivo) was 20%, the “Mean corticosteroid dose reduction” value (subjects with cGVHD [1]; mITT) was 45% and the “Mean corticosteroid dose reduction” value (subjects with cGVHD [1]; responders) was 54%. The “Clinically meaningful improvement in 7-day LSS summary score” value (from here on “Clinically meaningful improvement”) (subjects with cGVHD [2]; 200 mg daily, nonresponders) was 29%, the “Clinically meaningful improvement” value (subjects with cGVHD [2]; 200 mg daily, responders) was 69% and the “Clinically meaningful improvement” value (subjects with cGVHD [2]; 200 mg twice daily, nonresponders) was 33%. The “Clinically meaningful improvement” value (subjects with cGVHD [2]; 200 mg twice daily, responders) was 71%, the “Clinically significant improvement from baseline (LSS), Overall” value (subjects with cGVHD [2]; 200 mg daily (n = 66)) was 39 (59) n (%) and the “Clinically significant improvement from baseline (LSS), Overall” value (subjects with cGVHD [2]; 200 mg twice daily (n = 66)) was 41 (62) n (%). For the same molecule, the “Best ORR for pulmonary cGVHD, NIH response criteria” value (subjects with BOS; 59 subjects) was 32%, the “PR for pulmonary cGVHD, NIH response criteria” value (subjects with BOS; 59 subjects) was 17% and the “Lung-specific NIH response, Best ORR” value (subjects with BOS; [6]) was 50%. For the same molecule, the “Lung-specific NIH response, CR rate” value (subjects with BOS; [6]) was 27%, the “Lung-specific NIH response, PR rate” value (subjects with BOS; [6]) was 23% and the “Lung-specific NIH response, Best ORR” value (subjects with BOS; [7]) was 17%. The “Lung-specific NIH response, CR rate” value (subjects with BOS; [7]) was 4%, the “Lung-specific NIH response, PR rate” value (subjects with BOS; [7]) was 13% and the “Lung-specific NIH response, Best ORR” value (subjects with BOS; [8]) was 0%. For the same molecule, the “Lung-specific NIH response, CR rate” value (subjects with BOS; [8]) was 0%, the “Lung-specific NIH response, PR rate” value (subjects with BOS; [8]) was 0% and the “Lung-specific NIH response, Best ORR” value (subjects with BOS; Total, 59 subjects) was 32%. For the same molecule, the “Lung-specific NIH response, CR rate” value (subjects with BOS; Total, 59 subjects) was 15%, the “Lung-specific NIH response, PR rate” value (subjects with BOS; Total, 59 subjects) was 17% and the “Best lung ORR” value (subjects with BOS; baseline NIH lung score 1) was 50%. For the same molecule, the “Lung CR” value (subjects with BOS; baseline NIH lung score 1) was 27%, the “Lung PR” value (subjects with BOS; baseline NIH lung score 1) was 23% and the “Best lung ORR” value (subjects with BOS; baseline NIH lung score 2) was 17%. For the same molecule, the “Lung CR” value (subjects with BOS; baseline NIH lung score 2) was 4%, the “Lung PR” value (subjects with BOS; baseline NIH lung score 2) was 13% and the “Best ORR for lung cGVHD, NIH response with PFTs alone” value (subjects with BOS; in vivo) was 24%. For the same molecule, the “CR for lung cGVHD, PFTs alone” value (subjects with BOS; in vivo) was 10%, the “PR for lung cGVHD, PFTs alone” value (subjects with BOS; in vivo) was 14% and the “Median time to first NIH lung response” value (subjects with BOS; range, 3-39) was 5 cycles. The “Median time to best NIH lung response” value (subjects with BOS; range, 3-41) was 7 cycles.
